Source: PubChem BioAssay (NCI)
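Cultured in 96-well plates, cells were exposed to test compound for 48 hours across five concentrations. GI50: concentration for 50% inhibition of growth. Definition used: TGI = concentration required for complete inhibition of growth.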

Tests used:
Assay in all cases: NCI-60 cell line screen, 48 h
[1] = tested on: OVCAR-3 ovarian
[2] = tested on: NCI-H23 lung
[3] = tested on: BT-549 breast
[4] = tested on: K-562 leukemia
[5] = tested on: SF-295 CNS
[6] = tested on: ACHN renal
[7] = tested on: HS 578T breast
[8] = tested on: DU-145 prostate
[9] = tested on: OVCAR-8 ovarian
[10] = tested on: CAKI-1 renal
[11] = tested on: MDA-MB-231 breast
[12] = tested on: HOP-62 NSCLC
[13] = tested on: SF-268 CNS
[14] = tested on: LOX IMVI melanoma
[15] = tested on: HCT-116 colon
[16] = tested on: SK-MEL-5 melanoma
[17] = tested on: COLO 205 colon
[18] = tested on: SK-MEL-28 melanoma
[19] = tested on: MALME-3M melanoma
[20] = tested on: SN12C renal
[21] = tested on: U251 CNS
[22] = tested on: SNB-19 CNS
[23] = tested on: RPMI-8226 leukemia
[24] = tested on: A549 NSCLC
[25] = tested on: NCI-H522 lung
[26] = tested on: OVCAR-5 ovarian
[27] = tested on: MDA-MB-468 breast
[28] = tested on: HCT-15 colon
[29] = tested on: RXF 393 renal
[30] = tested on: UO-31 renal
[31] = tested on: A498 renal
[32] = tested on: MDA-MB-435
[33] = tested on: T-47D breast
[34] = tested on: SF-539 CNS
[35] = tested on: NCI-H226 lung
[36] = tested on: HOP-92 NSCLC
[37] = tested on: M14 melanoma
[38] = tested on: EKVX NSCLC
[39] = tested on: SW-620 colon
[40] = tested on: UACC-257 melanoma
[41] = tested on: PC-3 prostate
[42] = tested on: SK-MEL-2 melanoma
[43] = tested on: MOLT-4 leukemia
[44] = tested on: CCRF-CEM leukemia
[45] = tested on: 786-0 renal
[46] = tested on: OVCAR-4 ovarian
[47] = tested on: MCF7 breast
[48] = tested on: HCC-2998 colon
[49] = tested on: NCI-H460 lung
[50] = tested on: HL-60(TB) leukemia
[51] = tested on: IGROV1 ovarian
[52] = tested on: NCI/ADR-RES ovarian
[53] = tested on: UACC-62 melanoma
[54] = tested on: SK-OV-3 ovarian
[55] = tested on: HT29 colon
[56] = tested on: KM12 colon
[57] = tested on: TK-10 renal

Q: For `CN(C)CCn1c2ccccc2c2nc3cc4ccccc4cc3nc21`, which GI50 [1] is on record?
A: 4.53 µM

Q: And the TGI [1]?
A: 17.2 µM

Q: What about the GI50 [2] of the same compound?
A: 2.86 µM

Q: And the TGI [2]?
A: 14.6 µM

Q: What about the GI50 [3] of the same compound?
A: 4.92 µM

Q: What about the TGI [3] of the same compound?
A: 18.5 µM

Q: What about the GI50 [4] of the same compound?
A: 1.79 µM

Q: What about the TGI [4] of the same compound?
A: 5.45 µM

Q: What about the GI50 [5] of the same compound?
A: 1.8 µM

Q: What about the TGI [5] of the same compound?
A: 12 µM

Q: What about the GI50 [6] of the same compound?
A: 1.59 µM

Q: What about the TGI [6] of the same compound?
A: 11.5 µM

Q: What about the GI50 [7] of the same compound?
A: 12.6 µM

Q: What about the TGI [7] of the same compound?
A: 39 µM

Q: And the GI50 [8]?
A: 2.65 µM

Q: What about the TGI [8] of the same compound?
A: 13.2 µM

Q: And the GI50 [9]?
A: 1.47 µM

Q: And the TGI [9]?
A: 3.54 µM

Q: And the GI50 [10]?
A: 1.28 µM

Q: And the TGI [10]?
A: 12.3 µM

Q: What about the GI50 [11] of the same compound?
A: 2.51 µM

Q: What about the TGI [11] of the same compound?
A: 15.3 µM

Q: And the TGI [12]?
A: 16.4 µM

Q: And the GI50 [13]?
A: 3.8 µM

Q: What about the TGI [13] of the same compound?
A: 16.4 µM

Q: What about the GI50 [14] of the same compound?
A: 1.16 µM

Q: What about the TGI [14] of the same compound?
A: 2.42 µM

Q: And the GI50 [15]?
A: 2.08 µM

Q: What about the TGI [15] of the same compound?
A: 14.1 µM

Q: What about the GI50 [16] of the same compound?
A: 2.88 µM

Q: What about the TGI [16] of the same compound?
A: 11.9 µM

Q: And the GI50 [17]?
A: 2.12 µM

Q: And the TGI [17]?
A: 10.4 µM

Q: And the GI50 [18]?
A: 5.72 µM

Q: What about the TGI [18] of the same compound?
A: 18.3 µM

Q: And the GI50 [19]?
A: 2.41 µM

Q: What about the TGI [19] of the same compound?
A: 8.72 µM

Q: And the GI50 [20]?
A: 2 µM

Q: What about the TGI [20] of the same compound?
A: 15.9 µM

Q: What about the GI50 [21] of the same compound?
A: 2.93 µM

Q: What about the TGI [21] of the same compound?
A: 14.1 µM

Q: What about the GI50 [22] of the same compound?
A: 5.8 µM

Q: What about the TGI [22] of the same compound?
A: 18.9 µM

Q: What about the TGI [23] of the same compound?
A: 13 µM

Q: What about the GI50 [24] of the same compound?
A: 1.02 µM

Q: And the TGI [24]?
A: 4.52 µM

Q: And the GI50 [25]?
A: 2.5 µM

Q: What about the TGI [25] of the same compound?
A: 14.5 µM

Q: What about the GI50 [26] of the same compound?
A: 3.73 µM

Q: And the TGI [26]?
A: 16.8 µM

Q: And the GI50 [27]?
A: 1.26 µM

Q: What about the TGI [27] of the same compound?
A: 6.36 µM

Q: And the GI50 [28]?
A: 1.06 µM

Q: What about the TGI [28] of the same compound?
A: 2.47 µM

Q: What about the GI50 [29] of the same compound?
A: 2.23 µM

Q: What about the TGI [29] of the same compound?
A: 10.2 µM

Q: What about the GI50 [30] of the same compound?
A: 0.335 µM

Q: What about the TGI [30] of the same compound?
A: 11.6 µM

Q: What about the GI50 [31] of the same compound?
A: 14.7 µM

Q: What about the TGI [31] of the same compound?
A: 32 µM

Q: And the GI50 [32]?
A: 4.19 µM

Q: And the TGI [32]?
A: 16.7 µM

Q: And the GI50 [33]?
A: 3.52 µM

Q: And the TGI [33]?
A: 19.4 µM

Q: What about the GI50 [34] of the same compound?
A: 3.01 µM

Q: What about the TGI [34] of the same compound?
A: 12.8 µM

Q: And the GI50 [35]?
A: 1.89 µM

Q: What about the TGI [35] of the same compound?
A: 6.59 µM

Q: What about the GI50 [36] of the same compound?
A: 0.0473 µM

Q: And the TGI [36]?
A: 2.12 µM

Q: What about the GI50 [37] of the same compound?
A: 2.48 µM

Q: And the TGI [37]?
A: 11.1 µM

Q: What about the GI50 [38] of the same compound?
A: 3.36 µM

Q: And the TGI [38]?
A: 16.2 µM

Q: And the GI50 [39]?
A: 2.08 µM

Q: And the TGI [39]?
A: 12.9 µM

Q: And the GI50 [40]?
A: 4.37 µM

Q: What about the TGI [40] of the same compound?
A: 16.6 µM

Q: What about the GI50 [41] of the same compound?
A: 2.44 µM

Q: And the TGI [41]?
A: 13.5 µM

Q: And the GI50 [42]?
A: 8.51 µM

Q: And the TGI [42]?
A: 21.5 µM

Q: And the GI50 [43]?
A: 2.76 µM

Q: What about the TGI [43] of the same compound?
A: 12.4 µM

Q: And the GI50 [44]?
A: 6.37 µM

Q: And the TGI [44]?
A: 21.1 µM

Q: And the GI50 [45]?
A: 3.95 µM

Q: And the TGI [45]?
A: 16.5 µM

Q: What about the GI50 [46] of the same compound?
A: 5.95 µM

Q: And the TGI [46]?
A: 22.1 µM

Q: What about the GI50 [47] of the same compound?
A: 1.29 µM

Q: And the TGI [47]?
A: 13.1 µM

Q: What about the GI50 [48] of the same compound?
A: 1.29 µM

Q: What about the TGI [48] of the same compound?
A: 2.66 µM

Q: What about the GI50 [49] of the same compound?
A: 1.17 µM

Q: And the TGI [49]?
A: 14.5 µM

Q: And the GI50 [50]?
A: 1.07 µM

Q: And the TGI [50]?
A: 2.85 µM

Q: And the GI50 [51]?
A: 1.63 µM

Q: And the TGI [51]?
A: 14.2 µM

Q: What about the GI50 [52] of the same compound?
A: 2.62 µM

Q: And the TGI [52]?
A: 15.3 µM

Q: What about the GI50 [53] of the same compound?
A: 5.13 µM

Q: What about the TGI [53] of the same compound?
A: 18.8 µM

Q: What about the GI50 [54] of the same compound?
A: 3.98 µM

Q: What about the TGI [54] of the same compound?
A: 17.2 µM

Q: What about the GI50 [55] of the same compound?
A: 1.41 µM

Q: What about the TGI [55] of the same compound?
A: 3.8 µM

Q: What about the GI50 [56] of the same compound?
A: 2.8 µM

Q: What about the TGI [56] of the same compound?
A: 15.2 µM

Q: And the TGI [57]?
A: 22.4 µM
